Test results: ChEMBL document CHEMBL6071202, “Design, Synthesis, and Biological Evaluation of 3-Amino-pyrazine-2-carboxamide Derivatives as Novel FGFR Inhibitors” (ACS Med Chem Lett, 2024)

How the values were obtained:
[1] = target: Fibroblast growth factor receptor 2 (Homo sapiens, UniProt P21802); experiment: Inhibition of FGFR2 (unknown origin)
[2] = target: T1, Receptor-type tyrosine-protein kinase FLT3 (Homo sapiens, UniProt P36888); experiment: Inhibition of FLT3 (unknown origin) by immobilized metal ion affinity-based fluorescence polarization
T1 sequence (P36888 whole entry): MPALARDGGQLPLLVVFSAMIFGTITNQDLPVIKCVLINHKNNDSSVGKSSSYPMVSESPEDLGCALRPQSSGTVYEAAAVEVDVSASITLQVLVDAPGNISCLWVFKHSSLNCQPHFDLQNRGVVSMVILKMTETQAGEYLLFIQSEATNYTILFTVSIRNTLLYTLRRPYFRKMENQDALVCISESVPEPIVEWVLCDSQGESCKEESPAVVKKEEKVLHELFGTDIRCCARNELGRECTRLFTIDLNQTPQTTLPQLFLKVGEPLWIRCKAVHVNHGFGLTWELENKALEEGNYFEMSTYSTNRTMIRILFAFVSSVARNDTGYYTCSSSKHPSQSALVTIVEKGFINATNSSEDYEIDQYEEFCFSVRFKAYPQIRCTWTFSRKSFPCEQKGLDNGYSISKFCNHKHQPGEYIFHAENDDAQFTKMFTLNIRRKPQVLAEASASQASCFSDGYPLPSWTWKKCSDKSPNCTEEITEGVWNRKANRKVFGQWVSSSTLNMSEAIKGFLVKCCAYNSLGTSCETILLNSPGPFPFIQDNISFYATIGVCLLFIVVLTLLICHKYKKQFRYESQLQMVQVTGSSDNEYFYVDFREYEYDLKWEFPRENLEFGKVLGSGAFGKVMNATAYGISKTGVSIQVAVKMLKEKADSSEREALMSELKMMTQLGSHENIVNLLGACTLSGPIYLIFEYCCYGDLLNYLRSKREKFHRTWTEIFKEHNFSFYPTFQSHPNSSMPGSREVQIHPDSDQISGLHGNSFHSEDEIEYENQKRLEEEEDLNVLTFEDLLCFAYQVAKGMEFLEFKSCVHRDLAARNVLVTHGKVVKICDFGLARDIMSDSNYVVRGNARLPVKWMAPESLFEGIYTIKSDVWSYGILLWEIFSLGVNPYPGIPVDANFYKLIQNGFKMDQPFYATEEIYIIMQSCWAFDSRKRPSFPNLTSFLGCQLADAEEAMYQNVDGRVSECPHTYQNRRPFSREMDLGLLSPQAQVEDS

Sequence of Fibroblast growth factor receptor 2 (P21802 whole entry): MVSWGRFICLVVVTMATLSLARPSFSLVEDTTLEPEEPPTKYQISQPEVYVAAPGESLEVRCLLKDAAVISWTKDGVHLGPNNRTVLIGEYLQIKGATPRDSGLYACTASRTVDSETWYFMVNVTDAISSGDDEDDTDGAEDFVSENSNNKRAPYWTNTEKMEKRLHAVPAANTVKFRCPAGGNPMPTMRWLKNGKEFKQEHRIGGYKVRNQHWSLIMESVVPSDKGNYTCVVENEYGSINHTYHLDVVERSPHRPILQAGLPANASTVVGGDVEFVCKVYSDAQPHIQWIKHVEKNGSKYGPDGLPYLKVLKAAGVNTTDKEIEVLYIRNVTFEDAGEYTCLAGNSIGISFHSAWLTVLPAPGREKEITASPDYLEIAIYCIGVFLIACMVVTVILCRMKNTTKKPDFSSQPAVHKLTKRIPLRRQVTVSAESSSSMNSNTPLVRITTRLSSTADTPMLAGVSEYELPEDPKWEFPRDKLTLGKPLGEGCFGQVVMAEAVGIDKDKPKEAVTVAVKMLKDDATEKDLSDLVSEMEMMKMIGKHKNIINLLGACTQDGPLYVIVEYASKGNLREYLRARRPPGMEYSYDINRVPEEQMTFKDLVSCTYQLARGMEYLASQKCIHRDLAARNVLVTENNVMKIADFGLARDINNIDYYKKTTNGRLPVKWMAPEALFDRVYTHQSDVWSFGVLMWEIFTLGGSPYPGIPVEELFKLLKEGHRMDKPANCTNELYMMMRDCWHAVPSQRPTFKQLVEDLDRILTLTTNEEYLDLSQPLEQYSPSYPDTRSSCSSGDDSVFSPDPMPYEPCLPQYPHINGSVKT

Work on `Nc1ncc(-c2ccncc2)nc1Nc1ccc2[nH]ccc2c1` [AKN-028] yielded an IC50 [1] of 120 nM and an IC50 [2] of 6 nM.
